In ChEMBL document CHEMBL4304778 (Eur J Med Chem, 2019):

Legend:
[1] = test system: HepG2; assay: Antitumor activity against human HepG2 cells by MTT assay; format: functional, cell-based
[2] = test system: MCF7; assay: Antitumor activity against human MCF7 cells by MTT assay; format: functional, cell-based
[3] = test system: PC-3; assay: Antitumor activity against human PC3 cells by MTT assay; format: functional, cell-based
[4] = molecular target: Signal transducer and activator of transcription 3 (Homo sapiens) (UniProt P40763); assay: Activation of STAT3 phosphorylation at Y705 residue in human Huh7 cells relative to control; format: cell-based
[5] = test system: Hep 3B2; assay: Induction of apoptosis in human Hep3B cells relative to control; format: functional
[6] = test system: HepG2; assay: Induction of apoptosis in human HepG2 cells relative to control; format: functional
[7] = Induction of apoptosis in human PLC5 cells relative to control; format: functional
[8] = molecular target: Vascular endothelial growth factor receptor 3 (Homo sapiens, UniProt P35916); assay: Inhibition of VEGFR3 (unknown origin)
[9] = test system: PLC; assay: Cytotoxicity against human PLC cells; format: functional, cell-based
[10] = test system: M21; assay: Antiproliferative activity against human M21 cells bt MTT assay; format: functional, cell-based
[11] = test system: HepG2; assay: Cytotoxicity against human HepG2 cells after 24 hrs by MTT assay; format: functional, cell-based; conditions: HepG2, 24 h
[12] = test system: SMMC-7721; assay: Cytotoxicity against human SMMC7721 cells after 24 hrs by MTT assay; format: functional, cell-based; conditions: SMMC-7721, 24 h
[13] = molecular target: Vascular endothelial growth factor receptor 1 (Homo sapiens, UniProt P17948); assay: Inhibition of VEGFR1 (unknown origin)
Vascular endothelial growth factor receptor 1, sequence (P17948 whole entry): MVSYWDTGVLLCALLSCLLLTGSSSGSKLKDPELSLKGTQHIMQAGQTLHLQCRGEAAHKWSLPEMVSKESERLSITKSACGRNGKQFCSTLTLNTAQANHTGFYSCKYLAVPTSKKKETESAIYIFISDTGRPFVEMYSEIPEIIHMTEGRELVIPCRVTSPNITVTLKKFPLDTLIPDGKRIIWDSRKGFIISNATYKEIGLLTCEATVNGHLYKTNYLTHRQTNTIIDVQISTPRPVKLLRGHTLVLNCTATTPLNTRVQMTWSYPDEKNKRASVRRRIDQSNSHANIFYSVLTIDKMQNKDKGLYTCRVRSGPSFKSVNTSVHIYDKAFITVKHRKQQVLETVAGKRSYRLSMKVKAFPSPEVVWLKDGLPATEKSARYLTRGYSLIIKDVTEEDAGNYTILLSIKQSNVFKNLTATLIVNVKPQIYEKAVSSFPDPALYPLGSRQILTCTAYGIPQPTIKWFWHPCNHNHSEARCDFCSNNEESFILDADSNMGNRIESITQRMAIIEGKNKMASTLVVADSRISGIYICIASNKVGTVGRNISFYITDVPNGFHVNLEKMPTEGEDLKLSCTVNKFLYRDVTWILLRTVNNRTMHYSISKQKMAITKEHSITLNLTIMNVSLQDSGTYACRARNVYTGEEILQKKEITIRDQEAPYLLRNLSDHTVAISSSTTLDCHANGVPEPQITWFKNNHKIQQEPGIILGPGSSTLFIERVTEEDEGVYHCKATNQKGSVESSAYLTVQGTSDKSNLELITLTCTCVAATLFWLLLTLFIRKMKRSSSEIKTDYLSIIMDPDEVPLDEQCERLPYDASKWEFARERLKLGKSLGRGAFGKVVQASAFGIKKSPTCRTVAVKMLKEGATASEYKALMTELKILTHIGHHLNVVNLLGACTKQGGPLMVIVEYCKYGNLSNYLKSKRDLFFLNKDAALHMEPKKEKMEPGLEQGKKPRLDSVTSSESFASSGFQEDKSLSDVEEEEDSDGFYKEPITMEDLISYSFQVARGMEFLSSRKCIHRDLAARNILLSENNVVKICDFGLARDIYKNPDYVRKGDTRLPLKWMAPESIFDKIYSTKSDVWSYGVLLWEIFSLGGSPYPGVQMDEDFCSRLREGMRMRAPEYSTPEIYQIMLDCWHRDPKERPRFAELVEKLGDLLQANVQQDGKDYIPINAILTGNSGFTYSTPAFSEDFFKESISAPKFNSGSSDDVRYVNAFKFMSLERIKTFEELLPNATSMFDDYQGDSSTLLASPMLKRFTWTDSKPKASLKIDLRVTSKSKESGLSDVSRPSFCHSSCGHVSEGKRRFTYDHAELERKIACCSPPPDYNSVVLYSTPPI

Signal transducer and activator of transcription 3 (Homo sapiens), sequence (P40763 whole entry): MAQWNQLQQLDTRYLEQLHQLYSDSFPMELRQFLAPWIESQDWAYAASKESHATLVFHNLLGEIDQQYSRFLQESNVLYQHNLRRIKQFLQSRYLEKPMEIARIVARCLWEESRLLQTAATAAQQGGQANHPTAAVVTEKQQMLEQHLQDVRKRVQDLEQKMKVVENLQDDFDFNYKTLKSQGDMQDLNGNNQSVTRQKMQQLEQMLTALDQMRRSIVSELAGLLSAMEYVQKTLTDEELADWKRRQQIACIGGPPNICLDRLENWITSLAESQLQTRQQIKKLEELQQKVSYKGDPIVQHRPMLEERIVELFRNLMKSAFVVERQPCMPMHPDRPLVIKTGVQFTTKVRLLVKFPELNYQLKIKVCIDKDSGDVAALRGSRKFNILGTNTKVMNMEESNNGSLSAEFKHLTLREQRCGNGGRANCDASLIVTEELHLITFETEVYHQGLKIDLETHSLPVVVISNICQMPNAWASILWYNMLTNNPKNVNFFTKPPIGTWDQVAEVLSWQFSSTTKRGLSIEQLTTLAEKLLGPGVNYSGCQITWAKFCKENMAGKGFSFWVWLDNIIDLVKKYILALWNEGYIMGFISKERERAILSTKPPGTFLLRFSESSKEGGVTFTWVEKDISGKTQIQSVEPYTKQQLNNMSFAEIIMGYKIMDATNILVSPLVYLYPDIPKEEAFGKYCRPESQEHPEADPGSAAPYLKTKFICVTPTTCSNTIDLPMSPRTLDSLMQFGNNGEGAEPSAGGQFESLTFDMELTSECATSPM
Vascular endothelial growth factor receptor 3, sequence (P35916 whole entry): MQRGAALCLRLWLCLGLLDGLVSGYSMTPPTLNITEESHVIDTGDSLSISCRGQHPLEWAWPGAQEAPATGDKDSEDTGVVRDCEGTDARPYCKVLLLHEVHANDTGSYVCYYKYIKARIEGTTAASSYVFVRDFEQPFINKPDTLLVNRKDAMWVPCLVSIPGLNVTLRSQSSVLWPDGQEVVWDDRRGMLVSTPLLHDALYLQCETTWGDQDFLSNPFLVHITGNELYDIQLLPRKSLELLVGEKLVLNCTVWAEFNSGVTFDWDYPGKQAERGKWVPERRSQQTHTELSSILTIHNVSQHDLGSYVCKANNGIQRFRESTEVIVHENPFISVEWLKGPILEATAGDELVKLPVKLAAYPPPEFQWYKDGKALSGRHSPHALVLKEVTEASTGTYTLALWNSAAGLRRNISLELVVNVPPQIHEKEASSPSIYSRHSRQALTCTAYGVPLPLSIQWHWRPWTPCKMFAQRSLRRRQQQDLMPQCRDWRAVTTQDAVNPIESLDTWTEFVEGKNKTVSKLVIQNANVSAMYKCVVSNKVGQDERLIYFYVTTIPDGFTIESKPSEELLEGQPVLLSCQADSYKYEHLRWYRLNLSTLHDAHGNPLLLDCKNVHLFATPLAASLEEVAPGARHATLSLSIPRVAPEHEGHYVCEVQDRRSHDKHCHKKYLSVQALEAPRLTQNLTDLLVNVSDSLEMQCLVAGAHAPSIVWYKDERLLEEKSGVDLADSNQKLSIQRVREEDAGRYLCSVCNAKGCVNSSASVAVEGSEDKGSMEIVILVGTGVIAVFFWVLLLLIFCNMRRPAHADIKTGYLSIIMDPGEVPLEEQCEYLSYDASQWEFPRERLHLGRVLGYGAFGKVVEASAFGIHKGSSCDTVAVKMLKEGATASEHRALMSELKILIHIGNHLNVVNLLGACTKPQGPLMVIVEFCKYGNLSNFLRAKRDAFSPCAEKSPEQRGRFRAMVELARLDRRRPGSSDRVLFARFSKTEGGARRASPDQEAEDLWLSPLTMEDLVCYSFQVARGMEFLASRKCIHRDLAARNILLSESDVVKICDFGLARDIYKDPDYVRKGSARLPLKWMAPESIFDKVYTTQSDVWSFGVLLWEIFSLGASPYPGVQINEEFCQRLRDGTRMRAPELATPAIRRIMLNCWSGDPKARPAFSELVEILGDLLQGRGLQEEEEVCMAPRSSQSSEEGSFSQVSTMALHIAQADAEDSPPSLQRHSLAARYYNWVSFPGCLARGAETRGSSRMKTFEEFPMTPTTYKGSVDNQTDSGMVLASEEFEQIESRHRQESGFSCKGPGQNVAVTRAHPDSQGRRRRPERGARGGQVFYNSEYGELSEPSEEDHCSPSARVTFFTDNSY

Which IC50 [1] does the source give for `O=C1CCC/C1=C\c1ccc(OC2CCCC2)cc1` here?
Its IC50 is over 100 µM.

What about the IC50 [2] of the same molecule?
Its IC50 is over 100 µM.

And the IC50 [3]?
The IC50 was 94.1 µM.

With `Cc1ccc(NC(=O)C2(C(=O)Nc3ccc(C)c(Oc4ccc(C#N)cc4)c3)CC2)cc1Oc1ccc(C#N)cc1` as the molecule, how does the Activity [4] read?
The Activity was 80%.

And the Activity [5]?
Its Activity is 2.5%.

What about the Activity [6] of the same molecule?
The Activity was 2%.

And the Activity [7]?
The Activity was 4.5%.

For `COc1cc2nccc(Oc3ccc(NC(=O)C4(C(=O)Nc5ccc(F)cc5)CC4)cc3)c2cc1OC` [CABOZANTINIB], which IC50 [8] is on record?
Its IC50 is 0.006 µM.

With `Cc1ccc(NC(=O)Nc2ccc(C)c(Oc3ccc(C#N)cc3)c2)cc1Oc1ccc(C#N)cc1` as the molecule, how does the Activity [4] read?
Its Activity is 40%.

What about the Activity [5] of the same molecule?
The Activity was 17.5%.

And the Activity [6]?
Its Activity is 22.5%.

What about the Activity [7] of the same molecule?
Its Activity is 17.5%.

With `O=C(Nc1ccc(-n2ncc3cc(C(F)(F)F)ccc32)cc1)Nc1ccc(C(F)(F)F)cc1` as the molecule, how does the IC50 [9] read?
The IC50 was 4.34 µM.

Which results are given for `Cc1ccc(C(=O)/C=C/c2ccc(OC3CCCC3)cc2)cc1`?
IC50 [1]: 20 µM; IC50 [2]: 36.4 µM; IC50 [3]: 17.1 µM

With `O=C1CCCCC/C1=C\c1ccc(OC2CCCC2)cc1` as the molecule, how does the IC50 [1] read?
Its IC50 is 71.3 µM.

And the IC50 [2]?
The IC50 was 64.7 µM.

What about the IC50 [3] of the same molecule?
The IC50 was 26.9 µM.

With `CCOC(=O)C1=C(C)OC(N)=C(C#N)C1c1ccc(OC2CCCC2)cc1` (stereo unspecified) as the molecule, how does the IC50 [1] read?
The IC50 was 8 µM.

What about the IC50 [2] of the same molecule?
The IC50 was 7.5 µM.

And the IC50 [3]?
The IC50 was 13.3 µM.

For `O=C(Nc1ccc(-n2ncc3c(Br)cccc32)cc1)Nc1ccc(Cl)c(C(F)(F)F)c1`, which IC50 [10] is on record?
Its IC50 is 3.43 µM.

With `CC(=O)/C=C/c1ccc(OC2CCCC2)cc1` as the molecule, how does the IC50 [1] read?
The IC50 was 27.3 µM.

What about the IC50 [2] of the same molecule?
Its IC50 is 40.9 µM.

And the IC50 [3]?
The IC50 was 21.8 µM.

For `CCN1CCC(=O)/C(=C/c2ccc(OC3CCCC3)cc2)C1`, which IC50 [1] is on record?
Its IC50 is 13 µM.

And the IC50 [2]?
The IC50 was 13.7 µM.

What about the IC50 [3] of the same molecule?
The IC50 was 9.1 µM.

With `Cc1ccc(C2=NN(c3ccccc3)C(c3ccc(OC4CCCC4)cc3)C2)cc1` (stereo unspecified) as the molecule, how does the IC50 [1] read?
Its IC50 is 7.2 µM.

And the IC50 [2]?
Its IC50 is 5.6 µM.

And the IC50 [3]?
The IC50 was 7.8 µM.

Which results are given for `CN1CCC(=O)/C(=C/c2ccc(OC3CCCC3)cc2)C1`?
IC50 [1]: 15.9 µM; IC50 [2]: 18.1 µM; IC50 [3]: 10.5 µM

What does the source list for `O=C(Nc1ccc(Cl)cc1)Nc1ccc(Oc2ncnc3cc(F)ccc23)cc1`?
IC50 [11]: 8.08 µM; IC50 [12]: 10.6 µM

Which IC50 [13] does the source give for `COc1cc2nccc(Oc3ccc(NC(=O)NC4CC4)c(Cl)c3)c2cc1C(N)=O` [LENVATINIB] here?
Its IC50 is 0.022 µM.

Which IC50 [1] does the source give for `O=C1CCCC/C1=C\c1ccc(OC2CCCC2)cc1` here?
The IC50 was 55.4 µM.

And the IC50 [2]?
Its IC50 is 49.4 µM.

What about the IC50 [3] of the same molecule?
The IC50 was 71.1 µM.
